# Values quoted from earlier work in patent EP3639895A1, “METHOD OF REDUCING PERSPIRATION” (priority 2018, dated 2020).
# Test system: Staphylococcus epidermidis
# Settings: 80% or greater reduction in growth of inoculum over 16 to 24 hours at 37°C
row,SMILES,minimum inhibitory concentration (MIC)
1,CCO [ethanol],greater than 1 mg.ml^-1
2,"CC(C)=CCCC(C)=CCCC(C)=CCO [farnesol, 3,7,11-trimethyldodeca-2,6,10-trienol]",ca. 25 µg.ml^-1
3,"Oc1cc(Cl)ccc1Oc1ccc(Cl)cc1Cl [triclosan, 2',4,4'-trichloro,2-hydroxy-diphenyl ether]",0.01 to 10 µg/mL
